Earlier results in patent US8835508B2, “Stable aqueous solution containing sodium pyruvate, and the preparation and use thereof” (priority 2006, dated 2014).
Where two headings read alike, the source gives them in different places.

Settings: for content of dimer: 3.0 M (3,000 mM) pure NaPyr in water, room temperature

## CC(=O)C(=O)[O-].[Na+] [NaPyr, sodium pyruvate]
pH 7.3, after 24 hours
  content of dimer: 9.1%
pH 7.3, after 48 hours
  content of dimer: 18.4%
22° C., pH >6.0, HPLC and NMR
  stability of aqueous solution containing NaPyr: unstable
